Measurements from US10421964B2, “UNA oligomers and compositions for treating amyloidosis” (Arcturus Therapeutics, Inc., priority 2015, dated 2019).
[UNA] = unlocked nucleic acid; m = 2'-O-methyl; r = 2'-OH (RNA)

System: V30M gene reporter variant (nucleotide sequence 264 to 304 of human TTR containing the point mutation at position 284)
Experiment: PSICHECK reporter assay against V30M gene reporter variant
Assay type: cell-based
Conditions: for effectiveness against V30M compared with V30V: V30V and V30M gene reporter variants
Experimental: Conventional siRNAs that are complementary to the […] mRNA were tiled around position 284. […] Positions 5, 9, 14 and 15 appear to be more accessible to silencing than other positions. […] Four conventional siRNA variations, namely V30M-P5, V30M-P9, V30M-P14, and V30M-P15, were prepared.
Thus, the selectivity of the conventional siRNAs against V30M over V30V was no more than 5.6.

Substance	silencing V30M TTR	activity compared to the conventional siRNA, each targeted to V30M	selectivity against V30M over V30V compared to the conventional siRNA	effectiveness against V30M compared with V30V
ĞCCAUGCAUGUGUUCAGAAŨmU / UUCUGAACACAUGCAUĞGCŨmU (chain 1 GCCAUGCAUGUGUUCAGAAUU; chain 2 UUCUGAACACAUGCAUGGCUU; siRNA; chain 1: sugars from the 5' end [UNA]1 r18 [UNA]1 m1, backbone not given here; chain 2: sugars from the 5' end r16 [UNA]1 r2 [UNA]1 m1, backbone not given here) [P16U17]	effective in silencing V30M TTR	–	–	–
ĞCCAUGCAUGUGUUCAGAAŨmU / UUCUGAACACAUGCAŨGGCŨmU (chain 1 GCCAUGCAUGUGUUCAGAAUU; chain 2 UUCUGAACACAUGCAUGGCUU; siRNA; chain 1: sugars from the 5' end [UNA]1 r18 [UNA]1 m1, backbone not given here; chain 2: sugars from the 5' end r15 [UNA]1 r3 [UNA]1 m1, backbone not given here) [P16U16]	effective in silencing V30M TTR	superior to the activity of the conventional siRNA V30M-P16	substantially greater than for the conventional siRNA V30M-P16	more effective against V30M than V30V
ĞCCAUGCAUGUGUUCAGAAŨmU / UUCUGAACACAUGCÃUGGCŨmU (chain 1 GCCAUGCAUGUGUUCAGAAUU; chain 2 UUCUGAACACAUGCAUGGCUU; siRNA; chain 1: sugars from the 5' end [UNA]1 r18 [UNA]1 m1, backbone not given here; chain 2: sugars from the 5' end r14 [UNA]1 r4 [UNA]1 m1, backbone not given here) [P16U15]	effective in silencing V30M TTR	superior to the activity of the conventional siRNA V30M-P16	substantially greater than for the conventional siRNA V30M-P16	more effective against V30M than V30V
ĞCCAUGCAUGUGUUCAGAAŨmU / UUCUGAÃCACAUGCAUGGCŨmU (chain 1 GCCAUGCAUGUGUUCAGAAUU; chain 2 UUCUGAACACAUGCAUGGCUU; siRNA; chain 1: sugars from the 5' end [UNA]1 r18 [UNA]1 m1, backbone not given here; chain 2: sugars from the 5' end r6 [UNA]1 r12 [UNA]1 m1, backbone not given here) [P16U7]	effective in silencing V30M TTR	superior to the activity of the conventional siRNA V30M-P16	substantially greater than for the conventional siRNA V30M-P16	more effective against V30M than V30V
ĞGCCAUGCAUGUGUUCAGAŨmU / UCUGAACACAUGCAUĞGCCŨmU (chain 1 GGCCAUGCAUGUGUUCAGAUU; chain 2 UCUGAACACAUGCAUGGCCUU; siRNA; chain 1: sugars from the 5' end [UNA]1 r18 [UNA]1 m1, backbone not given here; chain 2: sugars from the 5' end r15 [UNA]1 r3 [UNA]1 m1, backbone not given here) [P15U16]	effective in silencing V30M TTR	–	substantially greater than for the conventional siRNA V30M-P15	more effective against V30M than V30V
